# US4262008A, “2,4-Disubstituted 5-oxo-5H-hexahydrofuro[3,2b]pyrroles” (Beecham Group Limited, priority 1978, dated 1981)
# Like-named read-outs stand apart in the source and are kept apart here.
# Assays:
# [1] = system: platelet aggregation in response to collagen (human platelet-rich plasma); assay: Platelet aggregation in vitro, response to collagen; format: cell-based; details: human P.R.P., 37° C., 3 min preincubation, 50% inhibition of just-maximal collagen response
# Protocol: (§1) Human blood (20 ml) is drawn into a plastic syringe and immediately anti-coagulated by mixing with 0.1 volumes of 3.8% (w/v) trisodium citrate dihydrate. Platelet-rich plasma (P.R.P.) is prepared by centrifuging the anticoagulated blood of 180 g, for 12 minutes, at room temperature. Collagen "Collagen-reagent Horm" (Hormon-Chemie Munchem, Postfach 101, Germany) is dilated as necessary with 0.9% (w/v) saline and kept on ice. Adenosine 5'-diphosphate (A.D.P.) (Grade 1: sodium salt from equine muscle, Sigma.) is diluted, as necessary with 0.9% saline, from a 10 mM stock solution, pH 6.8 kept at -20° C. The compounds are dissolved freshly to 40 mM in dimethylformamide. P.R.P. is mixed with 0.1 volumes saline and 0.005 volumes compound on dimethylformamide (control) and incubated at 37° C. for 3 minutes before the addition of collagen.
# (§2) Platelet aggregation in response to collagen and A.D.P. is measured photometrically (Born G.V.R., 1962, Nature, 194 927) in a Bryston aggregometer coupled to a Vitatron linear pen recorder. The concentration of collagen producing a just-maximal change in light transmittance and the concentration of A.D.P. to produce only a first-phase aggregation response are established in each control P.R.P. The concentration of compounds to inhibit these control response by 50% in each case are determined.
# [2] = system: platelet aggregation in response to A.D.P. (human platelet-rich plasma); assay: Platelet aggregation in vitro, response to A.D.P.; format: cell-based; details: human P.R.P., 37° C., 3 min preincubation, 50% inhibition of first-phase aggregation response, read-out: IC50 vs. ADP
# Protocol: as §1, §2
# [3] = system: 5-hydroxytryptamine induced bronchoconstriction; assay: Inhibition of 5-hydroxytryptamine induced bronchoconstriction in anaesthetised, artificially respired guinea pig (Konzett-Rossler preparation); format: in vivo
# Protocol: 1. The compounds were examined for their ability to inhibit 5-hydroxytryptamine induced bronchoconstriction in the anaesthetised, artificially respired guinea pig (Konzett-Rossler preparation). The compounds were administered intravenously.
# [4] = system: histamine induced changes in pulmonary resistance and lung compliance; assay: Inhibition of histamine induced changes in pulmonary resistance and lung compliance in anaesthetised spontaneously respiring guinea pig; format: in vivo; details: Cavia porcellus, iv
# Protocol: 2. The compounds were tested for their ability to inhibit histamine induced changes in pulmonary resistance and lung compliance in the anaesthetised spontaneously respiring guinea pig. The compounds were administered intravenously.
# [5] = system: bronchoconstriction induced by an histamine aerosol; assay: Protection of conscious guinea pigs against bronchoconstriction induced by histamine aerosol (Herxheimer test); format: in vivo, guinea pig; details: aerosol generated from a 100 μg/ml solution
# Protocol: 3. The compounds were also examined for their ability to protect conscious guinea pigs against bronchoconstriction induced by an histamine aerosol (Herxheimer test). In these experiments the compounds were administered by aerosol administration.
SMILES,"IC50 ([1]; Homo sapiens, Platelet)","IC50 ([2]; Homo sapiens, Platelet)",also measured
"CCCCCCC(O)CCN1C(=O)CC2OC(CCCCC(=O)OCC)CC21 (single isomer, unassigned) [Example 4 (Higher Rf epimer), 2-(4'-ethoxycarbonyl-n-butyl)-4-(3""-hydroxy-n-nonyl)-5-oxo-5H-hexahydrofuro[3,2b]pyrrole]",,,IC50 [1]: 2900 nM; IC50 [2]: 7.4 µM
"CCCCCCC(O)CCN1C(=O)CC2OC(CCCCC(=O)OCC)CC21 (single isomer, unassigned) [Example 4 (Lower Rf epimer), 2-(4'-ethoxycarbonyl-n-butyl)-4-(3""-hydroxy-n-nonyl)-5-oxo-5H-hexahydrofuro[3,2b]pyrrole]",,,IC50 [1]: 28000 nM; IC50 [2]: 120 µM
"CCOC(=O)CCCCC1CC2C(CC(=O)N2CCC(C)(O)CC2CCCCC2)O1 (stereo not shown) [Example 5, 2-(4'-ethoxycarbonyl-n-butyl)-4-(3""-hydroxy-3""-hydroxy-3""-methyl-4""-cyclohexyl-n-butyl)5-oxo-5H-hexahydro-furo [3-2b]pyrrole]",17000 nM,100 µM,

# Further lines, with some results ahead:
"IC50 ([1]; Homo sapiens, Platelet)","IC50 ([2]; Homo sapiens, Platelet)",SMILES,also measured
260 nM,0.54 µM,"CCOC(=O)CCCCC1CC2C(CC(=O)N2CCC(C)(O)C2CCCCC2)O1 (stereo not shown) [Example 7, 2-(5'-ethoxycarbonyl-n-butyl)-4-(3""-hydroxy-3""-cyclohexyl-n-butyl)-5-oxo-5H-hexahydro-furo[3,2b]pyrrole]",
1200 nM,2.5 µM,"CCOC(=O)CCCCCC1CC2C(CC(=O)N2CCC(C)(O)C2CCCCC2)O1 (stereo not shown) [Example 6, 2-(5'-ethoxycarbonyl-n-pentyl)-4-(3""-hydroxy-3""-cyclohexyl-n-butyl)-5-oxo-5H-hexahydro-furo[3,2b]pyrrole]",
8800 nM,35 µM,"CCCCCCC(C)(O)CCN1C(=O)CC2OC(CCCCC(=O)OCC)CC21 (stereo not shown) [Example 1, 2-(4'-Ethoxycarbonyl-n-butyl)-4-(3""-hydroxy-3""-methyl-n-nonyl)-5-oxo-5H-hexahydro-furo[3,2-b]pyrrole]","ED50 ([3]; Cavia porcellus, iv, mean of 3 experiments, read-out: ED 50 against 5-hydroxytryptamine induced bronchoconstriction): 0.131 mg/kg; ED 50 range against 5-hydroxytryptamine induced bronchoconstriction ([3]; i.v., range of 3 experiments): 115 to 150 µg/kg; ED50 ([4]; lung compliance, read-out: ED 50 against compliance changes): 0.046 mg/kg; ED50 ([4]; pulmonary resistance, read-out: ED 50 against resistance changes): 0.033 mg/kg; protection against histamine challenge [5]: highly significant protection"
1700 nM,4.9 µM,"CCCCCC(O)CCN1C(=O)CC2OC(CCCCC(=O)OC)CC21 (stereo not shown) [Example 3, 4-(3""-Hydroxy-n-octyl)-2-(4'-methoxycarbonyl-n-butyl)-5-oxo-5H-hexahydrofuro[3,2-b]pyrrole]",
